Measurements published in publication PMC10001324, “Differential Effects of Nonsteroidal Anti-Inflammatory Drugs in an In Vitro Model of Human Leaky Gut” (Cells, 2023).
Converted amounts (≈) assume the structure as drawn. Read-outs that look alike come from different tables or passages of the source.

Tests used:
[1] = Log P / LogD7.4 by pH-metric titration in octanol (SiriusT3); assay type: physicochemical; conditions: for logD: pH 7.4; for logP: SiriusT3, octanol
Procedure: (§1) The major physicochemical properties of the drugs were determined using the SiriusT3 apparatus (Sirius Analytical Instruments Ltd., East Sussex, UK) equipped with an Ag/AgCl double junction reference pH electrode, a Sirius D-PAS spectrometer, and a turbidity sensing device. The pH electrode was calibrated titrimetrically in the pH range 1.8–12.2 as previously described. The pKas were defined by the potentiometric method by pH-metric titration. The powder (around 0.5 mg) was diluted in 1.5 mL of ISA water and the titration was analyzed in triplicate in the pH range 2.0–12.0.

physchem = conditions: water
Procedure: as §1

Caco-2 cells [2] = assay: Transepithelial electrical resistance (TEER), EtOH-stressed Caco-2; assay type: cell-based, human; conditions: Caco-2 20 DIV, 6% EtOH 24 h then 0.25, 0.5, 1 mM for 72 h
COX-1 = conditions: human blood, cited from earlier work
Caco-2 cells [3] = assay: Morphological analysis of the intestinal barrier (ZO-1 immunofluorescence, phalloidin staining); assay type: cell-based, human; conditions: Caco-2, 6% EtOH 24 h then 1 mM for 72 h
Procedure: Cells were then fixed with 3.7% paraformaldehyde (Sigma, USA) in PBS for 15 min at room temperature and then permeabilized with 0.1% Triton X-100 (Sigma, USA) in PBS for 5 min. After further washes with PBS, phalloidin 1000X (ab176753, Abcam, UK) was diluted to 1X in 1% BSA in PBS, and the cells were incubated for 90 min at room temperature (according to the manufacturer’s instructions). Finally, coverslips were mounted on microscope slides with Vectashield Mounting Medium H2000 with DAPI and cells were observed using a Leica SP5 confocal microscope. For each condition, n = 3, 5 fields/slide were analyzed. A representative picture is shown.
Cells were then treated with 6% EtOH (24 h) and then with 1 mM NSAIDs (72 h). Cells were fixed in 3.7% paraformaldehyde in PBS for 15 min at room temperature, rinsed with PBS, and permeabilized with 0.1% Triton X-100 in PBS for 5 min. After further washes with PBS, cells were incubated for 30 min with BSA 4% in PBS and then incubated overnight at 4 °C with the primary antibody zonulin-1 (ZO-1) (33-910, Thermo Scientific, MA, USA rabbit anti-human, dilution 1:100). […] Finally, coverslips were mounted on microscope slides with Vectashield Mounting Medium with DAPI and cells were observed using a Leica SP5 confocal microscope.

IKBα = IKBα protein levels by western blotting, Caco-2; assay type: cell-based, human; conditions: Caco-2, 6% EtOH 24 h then 1 mM for 72 h
IKBα/4-HNE adducts = assay: Immunoprecipitation for IKBα, IKBα/4-HNE adducts, Caco-2; assay type: cell-based, human; conditions: Caco-2, EtOH then 1 mM for 72 h
Procedure: The columns were incubated overnight at 4 °C. […] Values were given as RU.

Caco-2 cells [4] = assay: DCFDA cellular ROS assay, Caco-2; assay type: cell-based, human; conditions: compared to EtOH challenge alone; Caco-2, 1 mM for 72 h
COX-2 = conditions: human blood, cited from earlier work
4-HNE = 4-HNE levels by WB, Caco-2; assay type: cell-based, human; conditions: Caco-2, 6% EtOH 24 h then 1 mM for 72 h
Caco-2 cells [5] = conditions: effect on EtOH-induced increase; Caco-2, 1 mM for 72 h
Procedure: OxyBlot protein oxidation detection kits (S7150, Millipore Company, Burlington, MA, USA) were used according to the manufacturer’s instructions. Briefly, cells were plated (seeding density 3 × 10^5 cells/cm^2) in a complete medium in a T75 flask and cultured for 20 days post-confluence. After 20 days, cells were exposed for 24 h to EtOH (6%) and for 72 h to NSAIDs (1 mM). OxyBlot assay was then performed as previously reported.

[6] = system: Glutathione-S-transferase (GST); conditions: effect on EtOH-induced decrease; Caco-2, 1 mM for 72 h
NFkB = NFkB translocation in LPS-activated RAW 264.7 macrophages; assay type: cell-based, murine; conditions: 1 mM for 24 h
Procedure: The murine macrophage cell line RAW 264.7 (ATCC TIB-71) was purchased from ATCC, and cells were cultured as indicated by the manufacturer. For the experiment, cells were seeded 10,000/cm^2 for 24 h, starved for 4 h (w/o serum), and activated with lipopolysaccharides (LPS 10 ng/mL for 24 h; Sigma Aldrich, St. Louis, MO, USA). […] RAW 264.7 cells were seeded at 10,000 cells/cm^2 and activated with LPS. […] For both Caco-2 and RAW 264.7 cells, the procedure of extraction of different components was performed as previously reported. The protein fraction extracts were separated on a 10% SDS–polyacrylamide gel and electroblotted onto PVDF. Nonspecific binding sites were blocked by EBB for 5 min. Membranes were then incubated overnight at 4 °C with anti-NFκB and anti-PPARγ. As secondary antibodies, peroxidase-conjugated anti-rabbit, and anti-mouse were used. Bands were detected using Alliance 4.7 UVITEC (Cambridge, UK) and analyzed by ImageJ software. The relative densities of the immunoreactive bands were normalized to anti-Actin or anti-laminin using ImageJ software. Values were given as RU.

[7] = Caco-2 permeability assay (Papp, Ap-Bl); assay type: in vitro ADME; conditions: human, Caco-2, apical to basolateral
Procedure: Papp is the apparent permeability of a compound across a membrane. For drug transport studies, cells were seeded at a density of 3 × 10^5 cells/cm^2 on permeable support with 0.4 µm Transparent PET Membrane in complete medium, cultured and treated as described above.
Drug transport across Caco-2 monolayers was studied in the Ap–Bl direction, fresh drug and provided to the apical side (donor compartment), and the fresh vehicle was provided to the basolateral side (receiver compartment). For each solution, aliquots of 500 μL were collected immediately after the addition of compounds to the cells (the “time zero”), and after appropriate dilution, an HPLC analysis was performed. At the end of the experiment, after 120 min of incubation, 500 μL of the donor chamber solution was diluted and an HPLC analysis was performed.

COX = conditions: cited from earlier work
IL-8 = conditions: Caco-2, EtOH exposure 6% for 24 h; control 82.4 ± 0.44 pg/mL
TNF-α = conditions: Caco-2, EtOH exposure 6% for 24 h; control 10.8 ± 1.3 pg/mL

## CC(C)Cc1ccc(C(C)C(=O)O)cc1 (stereo not drawn) [Ibuprofen]
[1]; octanol/ISA water
  logD: 0.96
  logP: 3.91 ± 0.01
physchem
  solubility: 49 µg/mL (≈ 238 µM)
Caco-2 cells [2]
  TEER: partial but significant protective activity
COX-1; ref 23
  IC50: […]
COX-1; ref 24
  IC50: […]

## CC(C(=O)O)c1cccc(C(=O)c2ccccc2)c1 (stereo not drawn) [Ketoprofen, ketoprofen]
[1]; octanol/ISA water
  logP: 3.05 ± 0.01
[1]
  logD: 0.12
Caco-2 cells [3]
  intestinal barrier integrity (ZO-1 and phalloidin staining): did not show the ability to protect Caco-2 cells
IKBα
  IKBα protein levels: counteracted the EtOH-induced IKBα decrease
IKBα/4-HNE adducts
  IKBα/4-HNE adduct formation: reduced the formation of the adducts
Caco-2 cells [4]
  DCFDA fluorescence intensity (cellular ROS): more substantial
COX-1; ref 23
  IC50: 0.047 µM
COX-1; ref 24
  IC50: 0.11 µM
COX-2; ref 23
  IC50: 2.9 µM
COX-2; ref 24
  IC50: 0.88 µM

## NCCCC[C@H](N)C(=O)O [Lys, L-lysine]
Caco-2 cells [3]
  intestinal barrier integrity (ZO-1 and phalloidin staining): did not show the ability to protect Caco-2 cells
4-HNE
  4-HNE levels: not
IKBα/4-HNE adducts
  IKBα/4-HNE adduct formation: not
Caco-2 cells [5]
  levels of oxidized proteins (OxyBlot): did not exhibit direct antioxidant effects
[6]
  GST activity: not observed

## C[C@@H](C(=O)O)c1cccc(C(=O)c2ccccc2)c1 [R enantiomer, R-Ketoprofen]
NFkB
  NFkB translocation: inhibited NFkB translocation to the same extent as KLS
[7]; Caco-2, K
  Papp at 120 min: 0.579 ± 0.052 ×10⁻⁶ cm/s
[7]; Caco-2, KLS
  Papp at 120 min: 1.19 ± 0.044 ×10⁻⁶ cm/s
COX
  potency as a COX inhibitor: several logs less potent than the S enantiomer

## C[C@H](C(=O)O)c1cccc(C(=O)c2ccccc2)c1 [S enantiomer, (S)-ketoprofen]
NFkB
  NFkB translocation: not
[7]; Caco-2, K
  Papp at 120 min: 0.576 ± 0.031 ×10⁻⁶ cm/s
[7]; Caco-2, KLS
  Papp at 120 min: 1.19 ± 0.026 ×10⁻⁶ cm/s

## CCO [EtOH, Ethanol]
IL-8
  Secreted IL-8 levels: 283.9 ± 4.1 pg/mL
TNF-α
  Secreted TNF-α levels: 20.9 ± 0.7 pg/mL
